From ChEMBL document CHEMBL1201862, “PubChem BioAssay data set” (2004)
Activity calls are given as the source filed them.

How the values were obtained:
[1] = biological target: Dual specificity tyrosine-phosphorylation-regulated kinase 1A (Rattus norvegicus, UniProt Q63470); format: biochemical, Homo sapiens
HeLa = test: ATP-based viability loss in HeLa cells – cell-based, CellTiter-Glo luminescence, cherry-pick samples, cytotoxicity control for MITF activator project, dose response (AID 540259); format: functional; settings: Homo sapiens
Vero [2] = test: cells; format: functional; settings: Chlorocebus sabaeus
Streptococcus = test: GAS UMAA2166 growth inhibition – luminescence, BacTiterGlo, counter-screen for streptokinase expression inhibitor project, dose response (AID 1915); format: functional, organism-based;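 further: potency for reduction of bacterial viability or growth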
[3] = system: Streptococcus sp. 'group A'; test: Streptococcus pyogenes SK(-)GAS viability under kanamycin – luminescence, BacTiterGlo, confirmation, counter-screen for streptokinase expression inhibitor project, dose response (AID 1900); format: functional, organism-based
Vero [4] = test: cells; format: functional, cell-based; settings: Chlorocebus sabaeus
[5] = biological target: T1, Heat shock factor protein 1 (Mus musculus, UniProt P38532); test: enhancement of HSF1-driven luciferase signal – cell-based, NIH3T3, luminescence, dose retest, confirmation (AID 435004); format: functional;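 further: stress induced by proteasome inhibitor MG132 added 30 min after compound; luciferase reporter driven by HSF1 response element in NIH3T3 cells; actives raise luminescence as potentiators of the MG132 stress response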
T1 sequence (P38532 whole entry): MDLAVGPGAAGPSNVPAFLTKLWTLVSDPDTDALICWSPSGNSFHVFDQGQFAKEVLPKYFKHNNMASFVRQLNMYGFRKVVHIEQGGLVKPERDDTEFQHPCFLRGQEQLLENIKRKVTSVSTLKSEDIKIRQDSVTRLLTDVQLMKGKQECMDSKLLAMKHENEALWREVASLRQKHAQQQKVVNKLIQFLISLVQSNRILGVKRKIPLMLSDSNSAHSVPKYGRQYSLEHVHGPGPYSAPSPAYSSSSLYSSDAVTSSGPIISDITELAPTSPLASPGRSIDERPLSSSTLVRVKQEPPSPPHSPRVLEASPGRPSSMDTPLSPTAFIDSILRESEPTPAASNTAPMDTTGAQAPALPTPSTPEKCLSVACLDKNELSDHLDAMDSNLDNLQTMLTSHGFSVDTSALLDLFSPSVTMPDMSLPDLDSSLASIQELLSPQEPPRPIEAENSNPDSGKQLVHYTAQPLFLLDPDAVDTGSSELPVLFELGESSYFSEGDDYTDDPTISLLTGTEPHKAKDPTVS

[6] = biological target: T2, Polyadenylate-binding protein 1 (Homo sapiens, UniProt P11940); test: MLLE binding blockers, Cy5 peptide tracer – biochemical, fluorescence polarization, Cy5-PAM2 peptide, secondary, miRNA deadenylation inhibitor project, dose response (AID 602260); format: functional; settings: read-out: IC50_Mean
[7] = biological target: T2, Polyadenylate-binding protein 1; test: MLLE domain peptide-binding blockers, IC50 – biochemical, fluorescence polarization, FITC-PAM2 peptide, dose response (AID 602259); format: functional; settings: read-out: IC50_Mean
[8] = biological target: T3, Zinc finger protein mex-5 (Caenorhabditis elegans, UniProt Q9XUB2); test: potency of MEX-5 RNA-binding blockers – biochemical, C. elegans, fluorescence polarization, dose response (AID 1960)
T3 sequence (Q9XUB2 whole entry): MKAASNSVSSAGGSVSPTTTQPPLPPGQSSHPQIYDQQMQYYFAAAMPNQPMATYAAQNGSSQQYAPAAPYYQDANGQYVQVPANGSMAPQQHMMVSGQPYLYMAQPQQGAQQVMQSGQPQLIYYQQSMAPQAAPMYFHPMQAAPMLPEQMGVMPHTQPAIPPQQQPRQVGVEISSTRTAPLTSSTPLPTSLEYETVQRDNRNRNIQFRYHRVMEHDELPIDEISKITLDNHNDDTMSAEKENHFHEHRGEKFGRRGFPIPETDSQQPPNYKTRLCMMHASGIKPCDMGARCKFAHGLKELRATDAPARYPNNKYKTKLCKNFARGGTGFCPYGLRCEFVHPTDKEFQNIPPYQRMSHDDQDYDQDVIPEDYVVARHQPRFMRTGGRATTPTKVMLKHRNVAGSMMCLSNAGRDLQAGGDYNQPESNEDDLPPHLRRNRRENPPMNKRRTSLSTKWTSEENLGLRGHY

[9] = biological target: T4, RNA-binding protein pos-1 (Caenorhabditis elegans, UniProt G5EF15); test: disruptors of C. elegans POS-1 RNA interaction – biochemical, fluorescence polarization, dose response (AID 1964);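 further: purified POS-1 fused to maltose binding protein made in E. coli; potency of compounds blocking POS-1 binding to fluorescent RNA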
T4 sequence (G5EF15 whole entry): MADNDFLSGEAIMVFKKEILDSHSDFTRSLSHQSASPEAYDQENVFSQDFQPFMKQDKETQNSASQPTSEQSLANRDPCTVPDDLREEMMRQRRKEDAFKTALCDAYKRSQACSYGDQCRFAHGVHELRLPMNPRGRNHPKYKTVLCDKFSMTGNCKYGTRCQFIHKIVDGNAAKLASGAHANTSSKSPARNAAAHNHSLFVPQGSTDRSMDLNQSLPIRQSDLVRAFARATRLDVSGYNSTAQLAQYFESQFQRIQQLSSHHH

[10] = Luminescence Cell-Based Dose Response HTS to Identify Inhibitors of 5'UTR Stem-Loop Driven Prion Protein mRNA Translation in H4 Neuroglioblastoma Cells. [Related pubchem assays: 1827 (Project Summary), 1813 (Primary HTS)]; format: functional
[11] = luciferase reporter signal suppression in cells – H4 neuroglioma cells, luminescence, dose response (AID 1990); format: functional, cell-based
Paired box protein Pax-8 = Paired box protein Pax-8 (Homo sapiens, UniProt Q06710); test: PAX8 transcriptional activity inhibition in RMG-I – RMG-I cells, luciferase, cherry-pick, dose response (AID 687027); format: functional, cell-based;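 further: luciferase reporter driven by Pax8 target thyroperoxidase promoter measured by SteadyGlo luminescence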
[12] = alpha-synuclein stem-loop luciferase translation blockers – H4 neuroglioma cells, luminescence, confirmation (AID 1988); format: functional, cell-based
[13] = biological target: T5, Sentrin-specific protease 7 (Homo sapiens, UniProt Q9BQF6); format: functional;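 further: Luminescence-based dose-response confirmation of ultra-high-throughput screening hits, measuring inhibition of SENP7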
T5 sequence (Q9BQF6 whole entry): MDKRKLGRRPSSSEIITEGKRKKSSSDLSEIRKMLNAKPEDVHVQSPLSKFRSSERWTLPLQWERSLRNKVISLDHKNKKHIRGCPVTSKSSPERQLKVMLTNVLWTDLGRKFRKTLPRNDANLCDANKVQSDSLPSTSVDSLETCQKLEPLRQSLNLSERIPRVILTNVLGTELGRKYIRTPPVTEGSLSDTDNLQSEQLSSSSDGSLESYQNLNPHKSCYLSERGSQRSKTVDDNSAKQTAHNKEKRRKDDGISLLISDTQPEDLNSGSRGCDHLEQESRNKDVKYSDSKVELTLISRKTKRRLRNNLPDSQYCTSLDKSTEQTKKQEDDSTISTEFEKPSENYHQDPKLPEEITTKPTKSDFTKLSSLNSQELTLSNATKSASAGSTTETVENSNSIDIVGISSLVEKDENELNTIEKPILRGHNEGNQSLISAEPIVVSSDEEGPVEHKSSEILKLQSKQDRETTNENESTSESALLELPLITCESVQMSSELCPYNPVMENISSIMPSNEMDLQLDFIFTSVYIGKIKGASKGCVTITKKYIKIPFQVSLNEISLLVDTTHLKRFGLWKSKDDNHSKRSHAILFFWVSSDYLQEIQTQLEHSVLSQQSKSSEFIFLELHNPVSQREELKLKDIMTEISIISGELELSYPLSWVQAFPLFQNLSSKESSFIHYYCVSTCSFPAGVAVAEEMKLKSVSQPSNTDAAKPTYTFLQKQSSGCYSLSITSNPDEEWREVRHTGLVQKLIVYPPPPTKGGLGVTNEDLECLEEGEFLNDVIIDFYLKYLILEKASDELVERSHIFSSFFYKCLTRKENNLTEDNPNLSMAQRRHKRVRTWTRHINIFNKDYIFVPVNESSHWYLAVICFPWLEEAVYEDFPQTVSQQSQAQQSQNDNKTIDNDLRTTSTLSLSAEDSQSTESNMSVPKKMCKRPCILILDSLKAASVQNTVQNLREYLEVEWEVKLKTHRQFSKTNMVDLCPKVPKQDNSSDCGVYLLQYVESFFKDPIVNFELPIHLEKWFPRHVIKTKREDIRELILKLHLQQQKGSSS

[14] = biological target: T6, Sentrin-specific protease 8 (Homo sapiens, UniProt Q96LD8); format: functional;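 further: luminescence read-out of SENP8 inhibition, dose-response confirmation following an ultra-high-throughput screen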
T6 sequence (Q96LD8 whole entry): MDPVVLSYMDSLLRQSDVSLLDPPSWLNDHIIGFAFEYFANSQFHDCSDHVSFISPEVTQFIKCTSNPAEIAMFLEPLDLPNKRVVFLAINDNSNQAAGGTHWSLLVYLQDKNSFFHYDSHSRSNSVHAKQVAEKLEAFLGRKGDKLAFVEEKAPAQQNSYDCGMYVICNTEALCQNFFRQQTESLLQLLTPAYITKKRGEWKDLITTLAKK

Caspase-3 = biological target: T7, Caspase-3 (Homo sapiens, UniProt P42574); format: functional;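 further: Dose-response selectivity test against caspase-3 for candidate inhibitors of sentrin-specific proteases (SENPs)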
T7 sequence (P42574 whole entry): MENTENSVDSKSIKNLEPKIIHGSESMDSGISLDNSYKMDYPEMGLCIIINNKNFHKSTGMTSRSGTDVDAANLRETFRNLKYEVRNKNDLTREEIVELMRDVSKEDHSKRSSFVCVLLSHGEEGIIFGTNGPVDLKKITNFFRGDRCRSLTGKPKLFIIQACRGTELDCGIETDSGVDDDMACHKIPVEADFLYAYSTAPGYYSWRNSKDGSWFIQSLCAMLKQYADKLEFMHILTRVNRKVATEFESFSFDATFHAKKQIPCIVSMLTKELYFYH

[15] = biological target: T8, Sentrin-specific protease 6 (Homo sapiens, UniProt Q9GZR1); format: functional;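 further: Luminescence-based dose-response confirmatory assay of SENP6 inhibition, following up an ultra-high-throughput screen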
T8 sequence (Q9GZR1 whole entry): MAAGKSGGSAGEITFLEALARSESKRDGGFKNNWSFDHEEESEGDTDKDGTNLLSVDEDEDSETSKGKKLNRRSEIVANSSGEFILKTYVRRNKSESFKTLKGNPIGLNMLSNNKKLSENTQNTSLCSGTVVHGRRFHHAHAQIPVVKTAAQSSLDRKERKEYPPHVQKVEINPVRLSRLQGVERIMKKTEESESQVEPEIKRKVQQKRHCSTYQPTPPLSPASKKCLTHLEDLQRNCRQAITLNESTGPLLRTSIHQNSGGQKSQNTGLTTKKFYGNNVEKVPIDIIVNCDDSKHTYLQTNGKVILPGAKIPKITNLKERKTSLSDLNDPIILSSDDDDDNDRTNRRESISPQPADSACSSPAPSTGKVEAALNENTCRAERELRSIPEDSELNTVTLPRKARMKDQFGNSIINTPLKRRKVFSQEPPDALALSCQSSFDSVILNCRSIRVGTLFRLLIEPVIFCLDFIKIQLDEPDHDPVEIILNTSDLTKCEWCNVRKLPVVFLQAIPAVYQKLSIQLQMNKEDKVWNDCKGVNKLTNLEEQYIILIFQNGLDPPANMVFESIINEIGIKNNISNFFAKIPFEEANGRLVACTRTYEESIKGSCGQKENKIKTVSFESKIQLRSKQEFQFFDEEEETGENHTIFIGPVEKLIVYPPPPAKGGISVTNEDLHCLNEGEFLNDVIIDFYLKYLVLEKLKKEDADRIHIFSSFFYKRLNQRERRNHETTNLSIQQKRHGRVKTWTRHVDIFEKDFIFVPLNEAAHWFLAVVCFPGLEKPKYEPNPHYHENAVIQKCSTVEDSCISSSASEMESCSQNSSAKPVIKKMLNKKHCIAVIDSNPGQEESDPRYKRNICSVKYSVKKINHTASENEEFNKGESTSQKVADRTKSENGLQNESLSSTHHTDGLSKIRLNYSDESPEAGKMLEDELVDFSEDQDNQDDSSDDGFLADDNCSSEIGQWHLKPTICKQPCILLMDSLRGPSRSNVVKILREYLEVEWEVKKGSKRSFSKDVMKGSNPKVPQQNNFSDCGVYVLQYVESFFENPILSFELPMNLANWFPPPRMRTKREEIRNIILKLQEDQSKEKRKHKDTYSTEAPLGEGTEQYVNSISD

T2 sequence (P11940 whole entry, the tested form may be a part): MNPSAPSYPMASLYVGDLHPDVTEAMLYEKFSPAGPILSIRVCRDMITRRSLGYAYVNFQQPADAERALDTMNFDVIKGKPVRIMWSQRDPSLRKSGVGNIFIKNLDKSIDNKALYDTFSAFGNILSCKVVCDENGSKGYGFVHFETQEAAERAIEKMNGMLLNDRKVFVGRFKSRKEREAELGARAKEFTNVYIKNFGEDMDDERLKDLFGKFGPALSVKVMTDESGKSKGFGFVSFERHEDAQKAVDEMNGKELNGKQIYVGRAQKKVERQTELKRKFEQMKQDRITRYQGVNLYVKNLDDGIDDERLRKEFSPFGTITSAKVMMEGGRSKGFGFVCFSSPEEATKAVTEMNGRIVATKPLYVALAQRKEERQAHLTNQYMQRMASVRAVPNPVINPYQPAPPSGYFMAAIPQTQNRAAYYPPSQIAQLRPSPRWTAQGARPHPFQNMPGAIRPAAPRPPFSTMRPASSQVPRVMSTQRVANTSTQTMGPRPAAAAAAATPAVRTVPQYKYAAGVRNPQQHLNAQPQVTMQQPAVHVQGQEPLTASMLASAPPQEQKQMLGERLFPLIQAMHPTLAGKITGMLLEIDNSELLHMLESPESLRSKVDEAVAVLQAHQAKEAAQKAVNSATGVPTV
Chain of Paired box protein Pax-8 (Q06710 whole entry): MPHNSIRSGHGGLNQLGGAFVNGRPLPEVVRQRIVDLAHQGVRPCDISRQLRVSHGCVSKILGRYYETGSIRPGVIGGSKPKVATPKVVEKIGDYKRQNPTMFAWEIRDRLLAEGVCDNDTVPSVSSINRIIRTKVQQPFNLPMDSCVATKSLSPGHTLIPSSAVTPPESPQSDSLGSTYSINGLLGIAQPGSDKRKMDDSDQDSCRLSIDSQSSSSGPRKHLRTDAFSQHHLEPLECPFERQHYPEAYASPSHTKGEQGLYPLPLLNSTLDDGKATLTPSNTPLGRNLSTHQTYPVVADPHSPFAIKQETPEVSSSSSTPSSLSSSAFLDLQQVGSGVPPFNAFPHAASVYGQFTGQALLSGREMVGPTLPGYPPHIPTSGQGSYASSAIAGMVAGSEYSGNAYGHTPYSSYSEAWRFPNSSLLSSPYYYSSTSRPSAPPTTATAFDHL

N=C(N)NC(=O)c1nc(Cl)c(N)nc1N
AC50 [1]: 9.17 µM (active)

Cc1cc2ncc(-c3ccc(Cl)cc3)c(N)n2n1
AC50 (HeLa): 68.3 µM (active)

COc1ccc(CC(=O)NC(=S)NNC(=O)COc2c(C)cccc2C)cc1
CC50 (Vero [2]): > 25 µM (active)
EC50 (Streptococcus): 6.88 µM (active)
EC50 [3]: 0.124 µM (active)
IC50 (Vero [4]): 11.4 µM (active)

CCN(CC)S(=O)(=O)c1ccc(C)c(NC(S)=Nc2cccc(S(=O)(=O)N3CCCCCC3)c2)c1
CC50 (Vero [2]): 18.7 µM (active)
EC50 [5]: > 260 µM (inactive)
IC50 [6]: > 66 µM (inactive)
IC50 (Vero [4]): > 25 µM (active)
IC50 [7]: > 66 µM (inactive)

c1ccc2oc(CCc3nc4ccccc4o3)nc2c1
EC50 [8]: > 300 µM (not active)
AC50 (HeLa): 56.3 µM (active)
EC50 [9]: > 300 µM (not active)

CCCSc1ccc(C(=O)Nc2ccc(F)cc2F)cn1
AC50 (HeLa): 88.6 µM (active)

Cc1cc(O)c(C(=O)/C=C/c2ccc(Cl)cc2)c(=O)o1
CC50 (Vero [2]): 17.6 µM (active)
IC50 (Vero [4]): > 25 µM (active)

CC1=CC(C)(C)N2C(=O)C3(NCCc4c3[nH]c3ccccc43)c3cc(C)cc1c32 (centres undefined)
CC50 (Vero [2]): > 25 µM (active)
EC50 [10]: > 120 µM (not active)
EC50 [11]: 12.2 µM (active)
AC50 (Paired box protein Pax-8): 7.27 µM (active)
EC50 [12]: > 120 µM (not active)
IC50 (Vero [4]): 22.7 µM (active)

COc1ccc(/C=C2\SC(=S)N(C(C)C(=O)NC3C=CS(=O)(=O)C3)C2=O)cc1 (centres undefined)
AC50 [1]: 2.73 µM (active)

Clc1ccc(COn2nnc3ccccc32)c(Cl)c1
AC50 (HeLa): 77.9 µM (active)
IC50 [13]: 8.88 µM (active)
IC50 [14]: 35.3 µM (active)
IC50 (Caspase-3): 24.1 µM (active)
IC50 [15]: 31.2 µM (active)
